The target in one assay is T1, GBA3 (Homo sapiens, UniProt Q9H227).
T1 construct: expressed in transfected cells
T1 sequence (Q9H227 1-469): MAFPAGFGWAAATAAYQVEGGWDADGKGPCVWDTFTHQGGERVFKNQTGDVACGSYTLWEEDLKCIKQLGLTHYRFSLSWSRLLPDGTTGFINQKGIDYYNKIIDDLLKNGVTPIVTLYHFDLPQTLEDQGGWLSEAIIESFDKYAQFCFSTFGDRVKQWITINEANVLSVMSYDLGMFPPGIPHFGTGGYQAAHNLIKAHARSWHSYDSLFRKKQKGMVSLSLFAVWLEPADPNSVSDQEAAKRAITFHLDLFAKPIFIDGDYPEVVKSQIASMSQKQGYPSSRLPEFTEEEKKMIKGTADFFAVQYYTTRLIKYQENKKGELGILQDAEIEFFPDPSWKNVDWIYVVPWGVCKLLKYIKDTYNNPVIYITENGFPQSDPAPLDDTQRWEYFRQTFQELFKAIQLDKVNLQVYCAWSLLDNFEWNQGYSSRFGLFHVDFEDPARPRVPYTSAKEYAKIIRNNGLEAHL
The assay can be described thus: GBA3 inhibition in overexpressing HEK293T lysates. The settings on record: 100 mM HEPES, 4-MU substrate. Type of assay: biochemical. Here is the method: (§1) Based on the pull-down validation, a set of eight cyclic peptides (L1, L2, L4, L6, D1, D8, D12 and D13) were identified, synthesized, and evaluated for their inhibitory potency against recombinant human GBA1 (rhGBA1, Cerezyme®) and their selectivity over human β-glucosidases GBA2 and GBA3. Half-maximum inhibitory concentration (IC50) values for β-glucosidases were determined in vitro by measuring hydrolysis of 4-methylumbelliferyl-β-D-glucopyranoside (4-MU-β-D-Glu) fluorogenic substrate. […]
Pure product fractions were pooled, lyophilized, and dissolved again in DMSO before concentration was determined by A280 using a sample diluted in phosphate buffer at pH 7.4 and extinction coefficients determined from the sequence using the Expasy ProtParam online tool (https://web.expasy.org/protparam/). […]
(§2) 2.5. In vitro IC50 and Ki measurements […]
(§3) nM) at 37 °C for 30 min. Following this, 100 µL of 4MU substrate was added and the samples were again incubated at 37 °C for 30 min. The reaction was quenched using excess 1 M NaOH-glycine (200 µL, pH 10.3) and 4MU fluorescence was measured using a LS55 fluorimeter (λEx 366 nm and λEm 445 […]
(§4) GBA2 and GBA3 IC50 values were determined following a similar protocol,5 using stable GBA2 or GBA3 HEK293T over-expression cell lysates and McIlvaine buffer pH 5.8 with 0.1 % BSA (w/v) and 100 mM HEPES with 0.1 % BSA, respectively. Covalent inhibitor of endogenous GBA1 (1 µM Bodipy green-cyclophellitol β-epoxide activity based probe) was added for both GBA2 and GBA3 assays, and GBA2 inhibitor N-(5-adamantane-1-yl-methoxy-pentyl)-deoxynojirimycin, AMP-DNM at 1 nM) was added for GBA3 assay. Cell lysates were pre-incubated with the aforementioned GBA1/GBA2 inhibitors for 30 min at 37 °C (12.5 µL) and subsequently incubated with the tested ligands at a range of concentrations for 30 min at 37 °C (12.5 µL), after which 100 µL 4MU-β-D-glucopyranoside was added for a final incubation of 30 min at 37 °C, quenched with 200 µL 1 M NaOH-glycine (pH 10.3) and fluorescence was measured. IC50 values were calculated using GraphPad Prism version 8.

The next assay has as its target T2, GBA2 (Homo sapiens, UniProt Q9HCG7).
T2 construct: expressed in transfected cells
T2 sequence (Q9HCG7 1-927): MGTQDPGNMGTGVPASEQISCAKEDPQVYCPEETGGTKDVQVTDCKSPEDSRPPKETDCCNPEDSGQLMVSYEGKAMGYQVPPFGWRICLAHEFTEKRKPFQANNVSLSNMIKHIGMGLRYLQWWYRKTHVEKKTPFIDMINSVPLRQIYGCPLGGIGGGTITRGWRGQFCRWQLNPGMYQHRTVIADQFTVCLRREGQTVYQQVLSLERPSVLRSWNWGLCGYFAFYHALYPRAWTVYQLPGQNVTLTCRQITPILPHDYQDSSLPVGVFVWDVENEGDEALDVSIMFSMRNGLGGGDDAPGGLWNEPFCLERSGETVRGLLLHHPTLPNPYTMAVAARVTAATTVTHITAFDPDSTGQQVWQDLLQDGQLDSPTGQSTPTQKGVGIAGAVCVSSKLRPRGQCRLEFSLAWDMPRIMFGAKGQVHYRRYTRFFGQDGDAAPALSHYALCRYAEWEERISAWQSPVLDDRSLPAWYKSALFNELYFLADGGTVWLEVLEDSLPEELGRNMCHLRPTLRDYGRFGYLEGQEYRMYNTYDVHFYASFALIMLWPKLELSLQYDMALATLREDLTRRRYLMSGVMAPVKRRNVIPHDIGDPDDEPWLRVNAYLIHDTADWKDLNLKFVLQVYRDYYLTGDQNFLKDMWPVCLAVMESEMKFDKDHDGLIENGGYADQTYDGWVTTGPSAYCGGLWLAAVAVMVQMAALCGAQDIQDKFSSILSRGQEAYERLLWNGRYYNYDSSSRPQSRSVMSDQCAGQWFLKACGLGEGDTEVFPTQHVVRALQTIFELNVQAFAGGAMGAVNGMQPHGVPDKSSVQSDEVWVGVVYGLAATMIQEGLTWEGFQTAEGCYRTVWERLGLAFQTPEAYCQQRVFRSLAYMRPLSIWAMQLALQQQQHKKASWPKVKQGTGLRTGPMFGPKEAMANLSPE
The assay can be described thus: GBA2 inhibition in overexpressing HEK293T lysates. It counts as biochemical. The note with it: McIlvaine pH 5.8, 4-MU substrate. Here is the method: as §1, §2, §3, §4

Positions of bridges follow the written chain, without caps; N, C: chain ends. Non-standard residues stand in square brackets, D forms with d. Residues, ends and D or L forms follow the SMILES beside them. A value given as a limit tells only on which side of the number the result lay.

Regarding `CC(C)C[C@H](NC(=O)[C@@H](NC(=O)[C@H](CCCNC(=N)N)NC(=O)[C@@H]1CSCC(=O)N[C@H](Cc2ccc(O)cc2)C(=O)N[C@@H]([C@@H](C)O)C(=O)N2CCC[C@H]2C(=O)NCC(=O)N[C@@H](Cc2ccc(O)cc2)C(=O)N[C@@H](C(C)C)C(=O)N[C@@H](Cc2ccc(O)cc2)C(=O)N1)C(C)C)C(=O)N[C@@H](CCCCN)C(=O)N[C@@H](Cc1ccc(O)cc1)C(=O)N[C@@H](CS)C(N)=O` [D8] ({CH2CO}-[dY]TPGYVYCRVLKYC-NH2; thioether N-8), the IC50 at GBA3 and against GBA2 was over 100 µM each time.
Take `CC[C@H](C)[C@@H]1NC(=O)[C@H](CO)NC(=O)[C@H](CS)NC(=O)CNC(=O)CNC(=O)[C@H](CC(C)C)NC(=O)[C@H](Cc2ccc(O)cc2)NC(=O)[C@H](C(C)C)NC(=O)[C@H](CC(C)C)NC(=O)[C@H](CCCNC(=N)N)NC(=O)[C@@H]2CCCN2C(=O)[C@H](Cc2ccc(O)cc2)NC(=O)CSC[C@@H](C(N)=O)NC(=O)[C@H](CCC(=O)O)NC(=O)[C@H](CC(C)C)NC(=O)[C@H](CC(C)C)NC1=O` [L1] ({CH2CO}-YPRLVYLGGCSILLEC-NH2; thioether N-16): the IC50 against GBA3 and at GBA2 was over 100 µM in each case.
Regarding `CC[C@H](C)[C@H](NC(=O)[C@H](CCCNC(=N)N)NC(=O)[C@@H]1CSCC(=O)N[C@@H](Cc2ccc(O)cc2)C(=O)N[C@@H](C)C(=O)N[C@@H](Cc2ccc(O)cc2)C(=O)N[C@@H](Cc2c[nH]c3ccccc23)C(=O)N[C@@H](Cc2c[nH]c3ccccc23)C(=O)N[C@@H](CC(C)C)C(=O)N1)C(=O)N1CCC[C@H]1C(=O)N[C@@H](Cc1c[nH]c2ccccc12)C(=O)N[C@@H](CC(C)C)C(=O)N[C@@H](CO)C(=O)N[C@H](C(N)=O)C(C)C` [L2] ({CH2CO}-YAYWWLCRIPWLSV-NH2; thioether N-7), the IC50 on GBA3 and against GBA2 was over 100 µM each time.
On to `CC[C@H](C)[C@@H]1NC(=O)[C@H](Cc2ccc(O)cc2)NC(=O)CSC[C@@H](C(N)=O)NC(=O)[C@H](Cc2c[nH]c3ccccc23)NC(=O)[C@H](CCC(N)=O)NC(=O)[C@H]([C@@H](C)CC)NC(=O)[C@H]([C@@H](C)CC)NC(=O)[C@@H]2CCCN2C(=O)[C@H](C(C)C)NC(=O)[C@H](Cc2ccc(O)cc2)NC(=O)[C@H](Cc2c[nH]c3ccccc23)NC(=O)[C@H](CO)NC1=O` [L6] ({CH2CO}-YISWYVPIIQWC-NH2; thioether N-12), for which the IC50 against GBA3 and against GBA2 was over 100 µM each time.
On to `CC(C)C[C@@H]1NC(=O)CNC(=O)[C@H](CC(C)C)NC(=O)[C@@H](Cc2ccc(O)cc2)NC(=O)CSC[C@@H](C(N)=O)NC(=O)[C@H](CO)NC(=O)[C@H](CCCCN)NC(=O)[C@H](CC(C)C)NC(=O)[C@H](Cc2ccccc2)NC(=O)[C@H](CCCNC(=N)N)NC(=O)[C@H](Cc2ccc(O)cc2)NC(=O)[C@H](Cc2c[nH]c3ccccc23)NC1=O` [D12] ({CH2CO}-[dY]LGLWYRFLKSC-NH2; thioether N-12), for which the IC50 was about 85 µM on GBA3 and over 100 µM against GBA2.
Regarding `CC[C@H](C)[C@H](NC(=O)[C@H](CC(C)C)NC(=O)[C@H](Cc1ccc(O)cc1)NC(=O)[C@H](Cc1ccc(O)cc1)NC(=O)[C@@H]1CSCC(=O)N[C@H](Cc2ccc(O)cc2)C(=O)N[C@@H](CCCNC(=N)N)C(=O)N[C@@H](C(C)C)C(=O)N1)C(=O)N[C@H](C(=O)N[C@H](C(=O)N[C@@H](CC(C)C)C(=O)N[C@@H](CC(=O)O)C(=O)N[C@@H](CS)C(N)=O)C(C)C)[C@@H](C)O` [D1] ({CH2CO}-[dY]RVCYYLITVLDC-NH2; thioether N-4), the IC50 against GBA3 and at GBA2 was over 100 µM in each case.
`CC(C)C[C@@H]1NC(=O)CNC(=O)[C@H](Cc2ccccc2)NC(=O)[C@H](CC(C)C)NC(=O)[C@@H]2CCCN2C(=O)[C@H](Cc2ccc(O)cc2)NC(=O)CSC[C@@H](C(=O)N2CCC[C@H]2C(=O)N[C@@H](CC(N)=O)C(=O)N[C@@H](Cc2c[nH]c3ccccc23)C(=O)N[C@@H](Cc2ccccc2)C(=O)N2CCC[C@H]2C(=O)N[C@@H](Cc2ccc(O)cc2)C(=O)N[C@@H](CCC(N)=O)C(=O)N[C@@H](CS)C(N)=O)NC(=O)[C@H](CO)NC(=O)[C@H](Cc2ccccc2)NC1=O` [L4] ({CH2CO}-YPLFGLFSCPNWFPYQC-NH2; thioether N-9): the IC50 at GBA3 and against GBA2 was over 100 µM each time.

Usually IC50 stands for the point on the concentration scale where inhibition reaches its midpoint. Lower therefore signals inhibition by little substance.

Source of the values: article PMC11808397, “Development of selective nanomolar cyclic peptide ligands as GBA1 enzyme stabilisers” (RSC Chemical Biology, 2025).
